Assay results as given in patent US20230365592A1 (Agios Pharmaceuticals, Inc., priority 2022, published 2023).

Target: T1, human PAH with the R408W mutation (Homo sapiens, UniProt P00439, R408W)
T1 construct: expressed in transfected cells
T1 sequence (P00439 1-452 R408W): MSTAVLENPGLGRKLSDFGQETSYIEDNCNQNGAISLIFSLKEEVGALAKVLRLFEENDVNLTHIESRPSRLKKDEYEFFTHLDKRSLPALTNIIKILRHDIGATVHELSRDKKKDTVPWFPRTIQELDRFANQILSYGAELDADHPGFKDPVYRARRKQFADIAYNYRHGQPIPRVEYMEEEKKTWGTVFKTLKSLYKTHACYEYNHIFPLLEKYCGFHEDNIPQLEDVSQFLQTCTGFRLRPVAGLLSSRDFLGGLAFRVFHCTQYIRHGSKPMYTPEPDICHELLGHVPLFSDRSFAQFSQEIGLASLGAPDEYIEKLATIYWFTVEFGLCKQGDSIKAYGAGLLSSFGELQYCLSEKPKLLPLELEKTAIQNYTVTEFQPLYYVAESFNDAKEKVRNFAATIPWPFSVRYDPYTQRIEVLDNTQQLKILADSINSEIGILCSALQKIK
Assay: Cell Based Phenylalanine Flux Assay;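 note: after compound treatment, cells received sepiapterin plus isotope-labelled Phenylalanine for 4 hours, then labelled Tyrosine in the medium was quantified, 10-point 2-fold dilution series run in duplicate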
Conditions: A375 cells expressing R408W PAH; 24 hrs with compound, then 20 µM sepiapterin and 800 µM 13C9,15N-Phenylalanine for 4 hours; 13C-Tyrosine by LC-MS; average where tested multiple times; read-out: AC50

Row | Structure (SMILES) | AC50 [µM]
1 | c1ccn2nc([C@H]3NCCc4ncn(-c5nnc(C6CC6)o5)c43)cc2c1 (single isomer, unassigned) | 1 to 5
2 | FC(F)c1cccn2nc(C3c4nc[nH]c4CCN3c3nnc(-c4cccnc4)o3)cc12 (stereo not shown) | 1 to 5
3 | Cc1cccn2nc(C3c4nc[nH]c4CCN3C(=O)c3cc(C(C)(C)C)nn3C)cc12 (stereo not shown) | > 5

Same assay, conditions: A375 cells expressing human PAH R408W; 24 hrs compound incubation; 13C-Tyrosine by LC-MS; average where tested multiple times; read-out: AC50

Row | Structure (SMILES) | AC50 [µM]
4 | FC(F)c1cccn2nc([C@H]3c4nc[nH]c4CCN3c3cnccn3)cc12 [Example 1816, (R)-4-(4-(difluoromethyl)pyrazolo[1,5-a]pyridin-2-yl)-5-(pyrazin-2-yl)-4,5,6,7-tetrahydro-1H-imidazo[4,5-c]pyridine] | > 5

Same assay, conditions: A375 cells expressing human R408W PAH; 24 hrs compound incubation; 13C-Tyrosine by LC-MS; average where tested multiple times; read-out: AC50

Row | Structure (SMILES) | AC50 [µM]
5 | Cc1cccn2nc([C@@H]3c4nc[nH]c4CCN3C(=O)c3ccnn3-c3ccccn3)cc12 [Example 862, (S)-(4-(4-methylpyrazolo[1,5-a]pyridin-2-yl)-6,7-dihydro-1H-imidazo[4,5-c]pyridin-5(4H)-yl)(1-(pyridin-2-yl)-1H-pyrazol-5-yl)methanone] | < 0.5
6 | O=C(c1nnc(-c2ncccc2F)o1)N1CCc2[nH]cnc2[C@@H]1c1cc2c(C(F)F)cccn2n1 [Example 1427, (R)-(4-(4-(difluoromethyl)pyrazolo[1,5-a]pyridin-2-yl)-6,7-dihydro-1H-imidazo[4,5-c]pyridin-5(4H)-yl)(5-(3-fluoropyridin-2-yl)-1,3,4-oxadiazol-2-yl)methanone] | > 5
7 | O=C(c1ccnn1C(F)F)N1CCc2[nH]cnc2[C@H]1c1cc2ccccn2n1 [Example 656, (S)-(1-(difluoromethyl)-1H-pyrazol-5-yl)(4-(pyrazolo[1,5-a]pyridin-2-yl)-6,7-dihydro-1H-imidazo[4,5-c]pyridin-5(4H)-yl)methanone] | < 0.5
8 | Cc1cccn2nc([C@H]3c4nc[nH]c4CCN3C(=O)c3nnc(C(C)C)o3)cc12 [Example 1451, (R)-(5-isopropyl-1,3,4-oxadiazol-2-yl)(4-(4-methylpyrazolo[1,5-a]pyridin-2-yl)-6,7-dihydro-1H-imidazo[4,5-c]pyridin-5(4H)-yl)methanone] | > 5
9 | Cn1cc(-c2nc(C(F)F)c(C(=O)N3CCc4[nH]cnc4[C@@H]3c3cc4c(F)cccn4n3)o2)cn1 [Example 903, (R)-(4-(difluoromethyl)-2-(1-methyl-1H-pyrazol-4-yl)oxazol-5-yl)(4-(4-fluoropyrazolo[1,5-a]pyridin-2-yl)-6,7-dihydro-1H-imidazo[4,5-c]pyridin-5(4H)-yl)methanone] | 1 to 5
10 | Cc1cc(-c2nnc(C(=O)N3CCc4[nH]cnc4[C@@H]3c3cc4c(F)cccn4n3)o2)nn1C [Example 882, (R)-(5-(1,5-dimethyl-1H-pyrazol-3-yl)-1,3,4-oxadiazol-2-yl)(4-(4-fluoropyrazolo[1,5-a]pyridin-2-yl)-6,7-dihydro-1H-imidazo[4,5-c]pyridin-5(4H)-yl)methanone] | > 5
11 | Cc1cnn(C)c1-c1nnc(C(=O)N2CCc3[nH]cnc3[C@H]2c2cc3c(F)cccn3n2)o1 [Example 928, (S)-(5-(1,4-dimethyl-1H-pyrazol-5-yl)-1,3,4-oxadiazol-2-yl)(4-(4-fluoropyrazolo[1,5-a]pyridin-2-yl)-6,7-dihydro-1H-imidazo[4,5-c]pyridin-5(4H)-yl)methanone] | < 0.5
12 | CC(C)(C)c1nnc(C(=O)N2CCc3[nH]cnc3[C@H]2c2cc3c(C(F)F)cccn3n2)o1 [Example 1409, (S)-(5-(tert-butyl)-1,3,4-oxadiazol-2-yl)(4-(4-(difluoromethyl)pyrazolo[1,5-a]pyridin-2-yl)-6,7-dihydro-1H-imidazo[4,5-c]pyridin-5(4H)-yl)methanone] | < 0.5
13 | Cc1nnc(C(=O)N2CCc3[nH]cnc3[C@@H]2c2cc3c(Cl)cccn3n2)o1 [Example 1107, (R)-(4-(4-chloropyrazolo[1,5-a]pyridin-2-yl)-6,7-dihydro-1H-imidazo[4,5-c]pyridin-5(4H)-yl)(5-methyl-1,3,4-oxadiazol-2-yl)methanone] | 1 to 5
